According to patent US10370372B2, “Fused pyrimidine compound or salt thereof” (TAIHO PHARMACEUTICAL CO., LTD., priority 2015, dated 2019):
Where two headings read alike, the source gives them in different places.

How the values were obtained:
Assay type in all cases: cell-based
[1] = system: Human prostate cancer cells LNCaP; experiment: Inhibitory activity on androgen-dependent proliferation of prostate cancer cells; details: 1 nmol/L DHT, 72 hours, Cell Counting Kit-8, read-out: Proliferation inhibition concentration GI50 value
Method: Human prostate cancer cells LNCaP (Non-Patent Literature 5) having […] androgen receptor gene were seeded in a clear bottom 96 well microplate (BD) at 4.0×10^3/well with phenol red free RPMI1640 containing 5% DCC-FBS (hereinbelow, the medium is referred to as an evaluation medium), and then cultured overnight. […] Then, the number of viable cells was measured. The number of viable cells was measured by using Cell Counting Kit-8 (DOJINDO LABORATORIES).

[2] = system: AR expression in LNCaP; experiment: Activity of reducing expression level of androgen receptor (Western blotting in LNCaP); details: Homo sapiens, read-out: AR expression reducing activity
Method: AR positive human prostate cancer cells LNCaP were seeded in a 6 well microplate (BD) at 3.5×10^5/well with RPMI1640 containing 5% FBS (hereinbelow, the medium is referred to as an evaluation medium), and then cultured overnight. […] After culture for 48 hours, the medium was removed and the cells were washed with PBS and added with 0.1 mL of Lysis buffer (M-PER added with Protease Inhibitor Cocktail), followed by keeping at 4° C. for 20 minutes. After cell lysis, the cell solution was centrifuged to recover the supernatant as cell lysate. […] The antibody-reacting band (anti AR receptor) was quantified by LAS Imaging System (FUJIFILM) using Super Signal West Dura Substrate (Thermo Scientific) as a detection reagent.
When the AR expression reducing activity is 50% or more, it is described as “reduced”.

[3] = system: AR positive human prostate cancer cells VCaP; experiment: Agonist activity for AR: cell proliferation rate of VCaP cells; details: 5-10000 nmol/L, 72 hours, relative to evaluation medium only, more than 10% = agonist activity
Method: Then, the number of viable cells was measured (test group). As a control, the cells were cultured after being added with the evaluation medium only, and the number of viable cells was measured (control group). The number of viable cells was measured by using CellTiter-Glo™ Luminescent Cell Viability Assay (Promega). From the measured number of viable cells, cell proliferation rate with respect to the compound of Examples or the compound of Comparative Examples was calculated based on the number of viable cells measured in the case of using the evaluation medium only. Cell proliferation rate (%)=(Number of viable cells in test group−Number of viable cells in control group)/(Number of viable cells in control group)×100
By considering an error in the number of viable cells measured in the case of using the evaluation medium only, when the cell proliferation rate was more than 10% at any concentration of the 8 concentrations which had been evaluated, it was determined to have an agonist activity for AR.

[4] = target: T1, human androgen receptor (Homo sapiens, UniProt P10275); experiment: Antagonist activity for AR: MMTV-luc reporter transcription in COS-7 cells transfected with human AR, stimulated with DHT
T1 construct: expressed in transfected cells; host or cells: COS-7 cells (ATCC)
T1 sequence (P10275 1-920): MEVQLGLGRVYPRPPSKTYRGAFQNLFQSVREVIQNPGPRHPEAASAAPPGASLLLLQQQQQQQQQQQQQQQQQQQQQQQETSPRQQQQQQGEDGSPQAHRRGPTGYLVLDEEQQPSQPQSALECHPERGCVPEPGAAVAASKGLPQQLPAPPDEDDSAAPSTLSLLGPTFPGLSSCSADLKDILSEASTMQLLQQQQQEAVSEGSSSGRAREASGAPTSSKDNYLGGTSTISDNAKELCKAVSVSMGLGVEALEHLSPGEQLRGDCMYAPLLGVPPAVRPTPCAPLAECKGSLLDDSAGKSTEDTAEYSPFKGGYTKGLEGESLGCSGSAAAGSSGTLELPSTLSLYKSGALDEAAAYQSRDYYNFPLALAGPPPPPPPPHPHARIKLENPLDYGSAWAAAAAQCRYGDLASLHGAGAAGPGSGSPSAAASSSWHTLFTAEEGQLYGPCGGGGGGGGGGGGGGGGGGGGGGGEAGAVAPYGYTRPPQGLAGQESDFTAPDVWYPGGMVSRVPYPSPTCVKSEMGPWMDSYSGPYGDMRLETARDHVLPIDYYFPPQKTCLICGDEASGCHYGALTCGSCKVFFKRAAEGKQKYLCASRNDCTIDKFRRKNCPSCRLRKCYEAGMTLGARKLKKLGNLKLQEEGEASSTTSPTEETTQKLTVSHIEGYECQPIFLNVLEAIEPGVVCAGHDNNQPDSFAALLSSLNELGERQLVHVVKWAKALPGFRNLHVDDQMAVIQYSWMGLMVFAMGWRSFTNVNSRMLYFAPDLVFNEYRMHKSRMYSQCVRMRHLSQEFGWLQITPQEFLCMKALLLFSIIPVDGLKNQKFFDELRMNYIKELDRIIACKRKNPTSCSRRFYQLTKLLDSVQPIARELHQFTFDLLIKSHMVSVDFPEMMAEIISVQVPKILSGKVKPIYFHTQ
Method: Antagonist activity for AR was evaluated according to the following method. COS-7 cells (ATCC) were transfected with pMMTV-luc vector (reporter plasmid having, as an androgen response element, […] long terminal repeat) and pEX-hAR vector (human androgen receptor expression vector: which expresses human AR gene under control of CMV promoter) by using Nucleofector (registered trademark) Kit R (Lonza) as a transfection reagent and Amaxa (Lonza). The COS-7 cells obtained after transfection were seeded in a clear bottom 96 well microplate (BD) at 1.5×10^4/well with phenol red free RPMI1640 containing 10% charcoal-treated fetal bovine serum (hereinbelow, DCC-FBS) (hereinbelow, the medium is referred to as an evaluation medium), and then cultured overnight. […] Then, the transcription activity value of the reporter plasmid was measured. The transcription activity was measured by using Bright-Glo™ Luciferase Assay System (Promega).

[5] = COS-7 cells with pMMTV-luc and pEX-hAR, 1 nmol/L DHT, 24 hours, read-out: AR antagonist IC50

SMILES | GI50 [1] [nM] | inhibition at 10 µM ([2]; 48 h) [%] | Cell proliferation rate (%) [3] [%] | IC50 [4] [nM] | IC50 [4, 5] [nM] | inhibition at 10 µM ([2]; 10000 nmol/L, 48 hours, vs evaluation medium control) [%]
CC(O)(CS(=O)(=O)c1ccc(F)cc1)C(=O)Nc1ccc(C#N)c(C(F)(F)F)c1 (stereo not shown) [Bicalutamide, reference compound] | 2300 | < 10 | 36 |  |  | 
CCNC(=O)c1ccc(Nc2ncnc3c2CCN(c2ccc(C#N)c(Cl)c2)C3)nc1F [Example 1, 6-((7-(3-Chloro-4-cyanophenyl)-5,6,7,8-tetrahydropyrido[3,4-d]pyrimidin-4-yl)amino)-N-ethyl-2-fluoronicotinamide] | 83 | > 50 | 9.7 | 2.6 |  | 
CNC(=O)c1ccc(Nc2ncnc3c2CCN(c2ccc(C#N)c(Cl)c2)C3)nc1F [Example 2, 6-((7-(3-chloro-4-cyanophenyl)-5,6,7,8-tetrahydropyrido[3,4-d]pyrimidin-4-yl)amino)-2-fluoro-N-methylnicotinamide] | 290 | > 50 |  | 33 |  | 
CNC(=O)c1ccc(Nc2ncnc3c2CCN(c2ccc(C#N)c(C(F)(F)F)c2)C3)nc1F [Example 3, 6-((7-(4-cyano-3-(trifluoromethyl)phenyl)-5,6,7,8-tetrahydropyrido[3,4-d]pyrimidin-4-yl)amino)-2-fluoro-N-methylnicotinamide] | 360 | > 50 | 8.9 | 31 |  | 
CCNC(=O)c1ccc(Nc2ncnc3c2CCN(c2ccc(C#N)c(C(F)(F)F)c2)C3)nc1F [Example 4, 6-((7-(4-cyano-3-(trifluoromethyl)phenyl)-5,6,7,8-tetrahydropyrido[3,4-d]pyrimidin-4-yl)amino)-N-ethyl-2-fluoronicotinamide] | 1100 | > 50 | 9.7 | 45 |  | 
CCNC(=O)c1ccc(Nc2ncnc3c2CCN(c2ccc(C#N)c(C(F)(F)F)c2)C3)nc1 [Example 5, 6-((7-(4-cyano-3-(trifluoromethyl)phenyl)-5,6,7,8-tetrahydropyrido[3,4-d]pyrimidin-4-yl)amino)-N-ethylnicotinamide] | 120 | > 50 | −1.9 | 100 |  | 
N#Cc1ccc(N2CCc3c(ncnc3Nc3ccc(C(=O)N4CCCCCC4)cn3)C2)cc1C(F)(F)F [Example 6, 4-(4-((5-(azepane-1-carbonyl)pyridin-2-yl)amino)-5,6-dihydropyrido[3,4-d]pyrimidin-7(8H)-yl)-2-(trifluoromethyl)benzonitrile] | 55 | > 50 | −1.0 | 130 |  | 
CC(C)(C)ONC(=O)c1ccc(Nc2ncnc3c2CCN(c2ccc(C#N)c(C(F)(F)F)c2)C3)nc1 [Example 7, N-(tert-butoxy)-6-((7-(4-cyano-3-(trifluoromethyl)phenyl)-5,6,7,8-tetrahydropyrido[3,4-d]pyrimidin-4-yl)amino)nicotinamide] | 180 | > 50 | 0.90 |  | 380 | 
CC(C)(C)OC(=O)NCCNC(=O)c1ccc(Nc2ncnc3c2CCN(c2ccc(C#N)c(C(F)(F)F)c2)C3)nn1 [Example 8, tert-butyl (2-(6-((7-(4-cyano-3-(trifluoromethyl)phenyl)-5,6,7,8-tetrahydropyrido[3,4-d]pyrimidin-4-yl)amino)pyridazine-3-carboxamido)ethyl)carbamate] | 1100 | > 50 | 5.3 | 59 |  | 
N#Cc1ccc(N2CCc3c(ncnc3Nc3ccc(C(=O)NC4CC4)nn3)C2)cc1C(F)(F)F [Example 9, 6-((7-(4-cyano-3-(trifluoromethyl)phenyl)-5,6,7,8-tetrahydropyrido[3,4-d]pyrimidin-4-yl)amino)-N-cyclopropylpyridazine-3-carboxamide] | 510 | > 50 | −3.0 | 30 |  | 
CCNC(=O)c1ccc(Nc2ncnc3c2CCN(c2ccc(C#N)c(C(F)(F)F)c2)C3)nn1 [Example 10, 6-((7-(4-cyano-3-(trifluoromethyl)phenyl)-5,6,7,8-tetrahydropyrido[3,4-d]pyrimidin-4-yl)amino)-N-ethylpyridazine-3-carboxamide] | 400 | > 50 |  | 7 |  | 
COc1cc(N2CCc3c(ncnc3Nc3ccc(C(C)(C)O)cn3)C2)ccc1[N+](=O)[O-] [Example 15, 2-(6-((7-(3-methoxy-4-nitrophenyl)-5,6,7,8-tetrahydropyrido[3,4-d]pyrimidin-4-yl)amino)pyridin-3-yl)propan-2-ol] | 3000 |  | 7.7 |  | 260 | 
CC(C)(O)c1ccc(Nc2ncnc3c2CCN(c2ccc([N+](=O)[O-])c(Cl)c2F)C3)nc1 [Example 18, 2-(6-((7-(3-chloro-2-fluoro-4-nitrophenyl)-5,6,7,8-tetrahydropyrido[3,4-d]pyrimidin-4-yl)amino)pyridin-3-yl)propan-2-ol] |  |  | 9.5 |  | 1000 | 
Cc1cc(N2CCc3c(ncnc3Nc3ccc(C(C)(C)O)cn3)C2)ccc1C#N [Example 20, 4-(4-((5-(2-hydroxypropan-2-yl)pyridin-2-yl)amino)-5,6-dihydropyrido[3,4-d]pyrimidin-7(8H)-yl)-2-methylbenzonitrile] |  |  | −0.89 |  | 480 | > 50
N#Cc1ccc(N2CCc3c(ncnc3Nc3ccc(C4(O)COC4)c(F)n3)C2)cc1Cl [Example 35, 2-Chloro-4-(4-((6-fluoro-5-(3-hydroxyoxetan-3-yl)pyridin-2-yl)amino)-5,6-dihydropyrido[3,4-d]pyrimidin-7(8H)-yl)benzonitrile] |  | > 50 | 9.4 |  | 120 | 
N#Cc1ccc(N2CCc3c(ncnc3Nc3ccc(OCCCN4CCNCC4)c(C(F)(F)F)c3)C2)cc1Cl [Example 38, 2-chloro-4-(4-((4-(3-(piperazin-1-yl)propoxy)-3-(trifluoromethyl)phenyl)amino)-5,6-dihydropyrido[3,4-d]pyrimidin-7(8H)-yl)benzonitrile] | 120 |  | −1.3 | 950 |  | 
